Test results from article PMC10177380 (Cancers, 2023).
Read-outs that look alike come from different tables or passages of the source.

Columns and labels:
[1] = Selectivity cytotoxicity index (GI50 in MCF10A/GI50 in Du145); conditions: human, MCF10A normal breast cells and Du145 prostate cancer cells
[2] = parameters: method as in earlier work; conditions: cited from earlier work
A431 skin = test system: A431 skin; parameters: method as in PMID 36296713, PMID 36142383; conditions: cited from earlier work
multiple cell lines = test system: multiple cell lines; parameters: method as in PMID 36296713, PMID 36142383; conditions: mean over all cell lines tested; cited from earlier work
A2780 ovarian = test system: A2780 ovarian; parameters: method as in PMID 36296713, PMID 36142383; conditions: cited from earlier work
H460 lung = test system: H460 lung; parameters: method as in PMID 36296713, PMID 36142383; conditions: cited from earlier work
[3] = test system: non-tumour derived MCF10A breast line; parameters: method as in PMID 36296713, PMID 36142383; conditions: cited from earlier work
[4] = test system: PC3 (prostate carcinoma) tumour; parameters: method as in PMID 18997969; conditions: mice with PC3 tumour, cited from earlier work; for reduction in mean tumour mass: relative to vehicle-treated control
U87 glioblastoma = test system: U87 glioblastoma; parameters: method as in PMID 36296713, PMID 36142383; conditions: cited from earlier work
[5] = test system: ADDP ovarian variant (cisplatin-resistant A2780 clone); parameters: method as in PMID 36296713, PMID 36142383; conditions: cited from earlier work
MIA pancreas = test system: MIA pancreas; parameters: method as in PMID 36296713, PMID 36142383; conditions: cited from earlier work
BE2C neuroblastoma = test system: BE2C neuroblastoma; parameters: method as in PMID 36296713, PMID 36142383; conditions: cited from earlier work
MCF7 breast = test system: MCF7 breast; parameters: method as in PMID 36296713, PMID 36142383; conditions: cited from earlier work
SJG2 glioblastoma = test system: SJG2 glioblastoma; parameters: method as in PMID 36296713, PMID 36142383; conditions: cited from earlier work
Du145 prostate = test system: Du145 prostate; parameters: method as in PMID 36296713, PMID 36142383; conditions: cited from earlier work
[6] = Stability in 10 mM PBS monitored by HPLC; assay type: physicochemical; conditions: 10 mM PBS pH ~7.4, 36 h, room temperature and 37 °C
Procedure: The stability measurements for complexes 1–6 were determined by dissolving each complex in 10 mM aqueous phosphate buffered saline (PBS) solution at pH ~7.4 and incubated at room temperature and at 37 °C for 36 h. The experiments were monitored via HPLC.
Additional stability studies for 1–6 were undertaken using 10 mM PBS (~7.4 pH) as the aqueous solution, but without the presence of a reducing agent such as AsA. This was only to show whether the complexes would be stable in aqueous solution for long hours. Each complex was dissolved in PBS and incubated at room temperature and at 37 °C for 36 h. After the incubation, all samples were analysed through HPLC. […] After 36 h at room temperature, peak traces of platinum(IV) complexes and the platinum(II) precursors, as well as the dissociated ACE ligand, were present, as shown in Figure S77. […] From this, it was reasoned that the larger the ligand conjugated to our platinum(IV) scaffold (i.e., ACE), the more susceptible the resulting derivatives (4–6) are to reduction, as they reduce even without a reducing agent. This parallels the results from the reduction experiments above, where 4–6 were the quickest to reduce in the presence of AsA.

MCF10A / Du145 = assay: Selectivity cytotoxicity index (GI50 in MCF10A/GI50 in Du145); conditions: GI50 in MCF10A/GI50 in Du145
[7] = Lipophilicity by HPLC (log kw); assay type: physicochemical; conditions: extrapolated from log k versus % organic solvent
Procedure: Lipophilicity measurements were undertaken using HPLC, as previously described (see Supplementary Materials).
Lipophilicity measurements were undertaken using HPLC as previously described. The complexes were eluted at different isocratic ratios. The capacity factor (k) was calculated using the retention times of the complexes. A standard curve was generated to determine the log value of the capacity factor (log k), and this was performed by plotting the log k value at each isocratic ratio versus the percentage of the organic solvent used in solvent (Figure S61). This produced a linear expression that allowed for the extrapolation of log kw. Log kw is the measure of lipophilicity; therefore, a greater value corresponds to increased lipophilicity.

HT29 colon cells = test system: HT29 colon cells; parameters: method as in PMID 36296713, PMID 36142383; conditions: cited from earlier work
[8] = test system: peritoneal carcinomatosis; parameters: method as in PMID 20535526; conditions: BD-IX rats, intravenous and intraperitoneal routes; cited from earlier work

SMILES | GI50 (A431 skin) | GI50 (multiple cell lines) | GI50 (A2780 ovarian) | GI50 (H460 lung) | GI50 [3] | GI50 (U87 glioblastoma) | GI50 [5] | GI50 (MIA pancreas) | GI50 (BE2C neuroblastoma) | GI50 (MCF7 breast) | GI50 (SJG2 glioblastoma) | GI50 (Du145 prostate) | Selectivity Cytotoxicity Index (SCI) (MCF10A / Du145) | log kw Values [7] | ROS Production (HT29 colon cells; HT29, 24 h) | ROS Production (HT29 colon cells; HT29, 48 h) | ROS Production (HT29 colon cells; HT29, 72 h) | further results
COc1ccc2c(c1)c(CC(=O)OCC(=O)O)c(C)n2C(=O)c1ccc(Cl)cc1 [ACE, acemetacin] |  |  |  |  |  |  |  |  |  |  |  |  |  |  |  |  |  | selectivity ratio [1]: 1; reported lipophilicity values [2]: 4.49
N.N.[Cl][Pt][Cl] [Cisplatin, cis-diamminedichloroplatinum(II)] | 2400 ± 300 nM | 5840 ± 610 nM | 1000 ± 100 nM | 900 ± 200 nM | 5200 ± 520 nM | 3800 ± 1100 nM | 28000 nM | 7500 ± 1300 nM | 1900 ± 200 nM | 6500 ± 800 nM | 400 ± 100 nM | 1200 ± 100 nM |  |  |  |  |  | reduction in mean tumour mass [4]: comparable reduction in mean tumour mass
COc1ccc2cc([C@H](C)C(=O)[O][Pt+2]3([OH])[N]4C=CC=c5cc(C)c6c(c54)[N]3C=CC=6)ccc2c1.N[C@H]1CCCC[C@@H]1N (some centres unmarked) [Complex 2, [Pt^IV(5-Mephen)(SS-DACH)(NPX)(OH)]^2+] |  |  |  |  |  |  |  |  |  |  |  |  |  |  |  |  |  | stability in PBS [6]: some traces of precursor platinum(IV) complexes and the dissociated NPX ligand were evident
COc1ccc2c(c1)c(CC(=O)OCC(=O)[O][Pt-2]13([OH])([NH2+][C@H]4CCCC[C@@H]4[NH2+]1)[n+]1cccc4ccc5ccc[n+]3c5c41)c(C)n2C(=O)c1ccc(Cl)cc1 [Complex 4, [Pt^IV(phen)(SS-DACH)(ACE)(OH)]^2+] |  |  |  |  |  |  |  |  |  |  |  |  | 2.40 | 1.93 |  |  |  | 
COc1ccc2c(c1)c(CC(=O)OCC(=O)[O][Pt-2]13([OH])([NH2+][C@H]4CCCC[C@@H]4[NH2+]1)[n+]1cccc4cc(C)c5ccc[n+]3c5c41)c(C)n2C(=O)c1ccc(Cl)cc1 [Complex 5, [Pt^IV(5-Mephen)(SS-DACH)(ACE)(OH)]^2+] |  |  |  |  |  |  |  |  |  |  |  |  | 15.4 | 2.16 |  |  |  | 
Cc1cc2c3c4c1=CC=C[N]4[Pt+2][N]3C=CC=2.N[C@H]1CCCC[C@@H]1N [Complex 5MESS] | 120 ± 25 nM | 117 ± 12 nM | 61 ± 10 nM | 41 ± 5 nM | 30 ± 2 nM | 320 ± 26 nM | 34 ± 2 nM | 48 ± 2 nM | 270 ± 38 nM | 200 ± 12 nM | 220 ± 10 nM | 22 ± 3 nM |  |  | 204 ± 4 RFU | 205 ± 3 RFU | 188 ± 3 RFU | 
COc1ccc2c(c1)c(CC(=O)OCC(=O)[O][Pt-2]13([OH])([NH2+][C@H]4CCCC[C@@H]4[NH2+]1)[n+]1cccc4c(C)c(C)c5ccc[n+]3c5c41)c(C)n2C(=O)c1ccc(Cl)cc1 [Complex 6, [Pt^IV(5,6-Me2phen)(SS-DACH)(ACE)(OH)]^2+] |  |  |  |  |  |  |  |  |  |  |  |  | 15.5 | 2.29 |  |  |  | 
Cc1c(C)c2cccnc2c2ncccc12.N[C@H]1CCCC[C@@H]1N.[Pt] [Complex 56MESS, [Pt^II(5,6-Me2phen)(SS-DACH)]^2+] | 29 ± 1 nM | 36 ± 10 nM | 76 ± 57 nM | 21 ± 2 nM | 16 ± 1 nM | 35 ± 6.4 nM | 13 ± 2 nM | 13 ± 2 nM | 59 ± 4 nM | 93 ± 44 nM | 66 ± 22 nM | 4.6 ± 0.4 nM |  |  | 240 ± 5 RFU | 218 ± 3 RFU | 255 ± 4 RFU | toxicity [8]: induced nephrotoxicity; tumour suppression response [8]: did not demonstrate tumour suppression response
C1=C[N]2[Pt+2][N]3C=CC=c4ccc(c2c43)=C1.N[C@H]1CCCC[C@@H]1N [PHENSS] | 480 ± 170 nM | 434 ± 110 nM | 230 ± 30 nM | 360 ± 35 nM | 300 ± 58 nM | 980 ± 270 nM | 190 ± 47 nM | 200 ± 57 nM | 380 ± 46 nM | 1500 ± 500 nM | 330 ± 66 nM | 100 ± 38 nM |  |  | 174 ± 2 RFU | 172 ± 9 RFU | 176 ± 7 RFU | reduction in mean tumour mass [4]: comparable reduction in mean tumour mass; toxic side effects [4]: did not elicit any toxic side effects
